Measurements taken from PubChem BioAssay (NCI).
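Values below derive from 48-hour exposures of cells grown in 96-well plates, with endpoints linearly interpolated between the two concentrations bracketing the appropriate inhibition level. The concentration for full growth arrest is given as TGI.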

Assays:
Assay in all cases: inhibition of tumour cell growth, NCI panel, 48 h
786-0 renal = test system: 786-0 renal
A498 renal = test system: A498 renal
A549 NSCLC = test system: A549 NSCLC
ACHN renal = test system: ACHN renal
BT-549 breast = test system: BT-549 breast
CAKI-1 renal = test system: CAKI-1 renal
CCRF-CEM leukemia = test system: CCRF-CEM leukemia
COLO 205 colon = test system: COLO 205 colon
DU-145 prostate = test system: DU-145 prostate
EKVX NSCLC = test system: EKVX NSCLC
HCC-2998 colon = test system: HCC-2998 colon
HCT-116 colon = test system: HCT-116 colon
HCT-15 colon = test system: HCT-15 colon
HL-60(TB) leukemia = test system: HL-60(TB) leukemia
HOP-62 NSCLC = test system: HOP-62 NSCLC
HOP-92 NSCLC = test system: HOP-92 NSCLC
HS 578T breast = test system: HS 578T breast
HT29 colon = test system: HT29 colon
IGROV1 ovarian = test system: IGROV1 ovarian
K-562 leukemia = test system: K-562 leukemia
KM12 colon = test system: KM12 colon
M14 melanoma = test system: M14 melanoma
MALME-3M melanoma = test system: MALME-3M melanoma
MCF7 breast = test system: MCF7 breast
MDA-MB-231 breast = test system: MDA-MB-231 breast
MDA-MB-435 = test system: MDA-MB-435
MDA-N = test system: MDA-N
MOLT-4 leukemia = test system: MOLT-4 leukemia
NCI-H226 lung = test system: NCI-H226 lung
NCI-H23 lung = test system: NCI-H23 lung
NCI-H460 lung = test system: NCI-H460 lung
NCI-H522 lung = test system: NCI-H522 lung
NCI/ADR-RES ovarian = test system: NCI/ADR-RES ovarian
OVCAR-3 ovarian = test system: OVCAR-3 ovarian
OVCAR-4 ovarian = test system: OVCAR-4 ovarian
OVCAR-5 ovarian = test system: OVCAR-5 ovarian
OVCAR-8 ovarian = test system: OVCAR-8 ovarian
PC-3 prostate = test system: PC-3 prostate
RPMI-8226 leukemia = test system: RPMI-8226 leukemia
RXF 393 renal = test system: RXF 393 renal
SF-268 CNS = test system: SF-268 CNS
SF-295 CNS = test system: SF-295 CNS
SF-539 CNS = test system: SF-539 CNS
SK-MEL-2 melanoma = test system: SK-MEL-2 melanoma
SK-MEL-28 melanoma = test system: SK-MEL-28 melanoma
SK-MEL-5 melanoma = test system: SK-MEL-5 melanoma
SK-OV-3 ovarian = test system: SK-OV-3 ovarian
SN12C renal = test system: SN12C renal
SNB-19 CNS = test system: SNB-19 CNS
SNB-75 CNS = test system: SNB-75 CNS
SR leukemia = test system: SR leukemia
SW-620 colon = test system: SW-620 colon
T-47D breast = test system: T-47D breast
TK-10 renal = test system: TK-10 renal
U251 CNS = test system: U251 CNS
UACC-257 melanoma = test system: UACC-257 melanoma
UACC-62 melanoma = test system: UACC-62 melanoma
UO-31 renal = test system: UO-31 renal
LOX IMVI melanoma = test system: LOX IMVI melanoma

## NCC[Se][Se]CCN
786-0 renal
  TGI: 29.4 µM
A498 renal
  TGI: 23.8 µM
A549 NSCLC
  TGI: 25.3 µM
ACHN renal
  TGI: 22.8 µM
BT-549 breast
  TGI: 27.8 µM
CAKI-1 renal
  TGI: 22.8 µM
CCRF-CEM leukemia
  TGI: 45.6 µM
COLO 205 colon
  TGI: 14.6 µM
DU-145 prostate
  TGI: 26.4 µM
EKVX NSCLC
  TGI: 18.1 µM
HCC-2998 colon
  TGI: 24.9 µM
HCT-116 colon
  TGI: 15.3 µM
HCT-15 colon
  TGI: 22.1 µM
HL-60(TB) leukemia
  TGI: 7.57 µM
HOP-62 NSCLC
  TGI: 21.3 µM
HOP-92 NSCLC
  TGI: 35.8 µM
HS 578T breast
  TGI: 82.2 µM
HT29 colon
  TGI: 26.9 µM
IGROV1 ovarian
  TGI: 25.7 µM
K-562 leukemia
  TGI: 64 µM
KM12 colon
  TGI: 20.6 µM
M14 melanoma
  TGI: 13.3 µM
MALME-3M melanoma
  TGI: 25.2 µM
MCF7 breast
  TGI: 33.1 µM
MDA-MB-231 breast
  TGI: 25.7 µM
MDA-MB-435
  TGI: 24.9 µM
MDA-N
  TGI: 23.4 µM
MOLT-4 leukemia
  TGI: > 100 µM
NCI-H226 lung
  TGI: 29.1 µM
NCI-H23 lung
  TGI: 30.6 µM
NCI-H460 lung
  TGI: 21.9 µM
NCI-H522 lung
  TGI: 25.6 µM
NCI/ADR-RES ovarian
  TGI: 58 µM
OVCAR-3 ovarian
  TGI: 28.3 µM
OVCAR-4 ovarian
  TGI: 32.1 µM
OVCAR-5 ovarian
  TGI: 17.6 µM
OVCAR-8 ovarian
  TGI: 38.1 µM
PC-3 prostate
  TGI: 27.5 µM
RPMI-8226 leukemia
  TGI: > 100 µM
RXF 393 renal
  TGI: 32.5 µM
SF-268 CNS
  TGI: 32.5 µM
SF-295 CNS
  TGI: 11.5 µM
SF-539 CNS
  TGI: 34.4 µM
SK-MEL-2 melanoma
  TGI: 23.2 µM
SK-MEL-28 melanoma
  TGI: 29.7 µM
SK-MEL-5 melanoma
  TGI: 18.4 µM
SK-OV-3 ovarian
  TGI: 25.8 µM
SN12C renal
  TGI: 21.5 µM
SNB-19 CNS
  TGI: 20.7 µM
SNB-75 CNS
  TGI: 27.4 µM
SR leukemia
  TGI: > 100 µM
SW-620 colon
  TGI: 48.9 µM
T-47D breast
  TGI: 64.4 µM
TK-10 renal
  TGI: 30.7 µM
U251 CNS
  TGI: 24.1 µM
UACC-257 melanoma
  TGI: 20.4 µM
UACC-62 melanoma
  TGI: 31.1 µM
UO-31 renal
  TGI: 13.3 µM

## Cn1c(NN)nc(-c2ccc([N+](=O)[O-])cc2)c(C#N)c1=O
786-0 renal
  TGI: 27.2 µM
A549 NSCLC
  TGI: 43.4 µM
ACHN renal
  TGI: 24.7 µM
BT-549 breast
  TGI: 25.5 µM
CAKI-1 renal
  TGI: 61.6 µM
CCRF-CEM leukemia
  TGI: > 100 µM
COLO 205 colon
  TGI: 47.7 µM
DU-145 prostate
  TGI: 30 µM
EKVX NSCLC
  TGI: 44.1 µM
HCC-2998 colon
  TGI: 26.5 µM
HCT-116 colon
  TGI: 25.4 µM
HCT-15 colon
  TGI: 42.4 µM
HL-60(TB) leukemia
  TGI: > 100 µM
HOP-62 NSCLC
  TGI: 27.1 µM
HS 578T breast
  TGI: 32.9 µM
HT29 colon
  TGI: 28.7 µM
IGROV1 ovarian
  TGI: 39.9 µM
K-562 leukemia
  TGI: > 100 µM
KM12 colon
  TGI: 30.1 µM
LOX IMVI melanoma
  TGI: 35.2 µM
M14 melanoma
  TGI: 25 µM
MALME-3M melanoma
  TGI: 29.7 µM
MCF7 breast
  TGI: 31.9 µM
MDA-MB-231 breast
  TGI: 28.4 µM
MDA-MB-435
  TGI: 32.8 µM
MDA-N
  TGI: 24.9 µM
NCI-H226 lung
  TGI: 28.7 µM
NCI-H23 lung
  TGI: 26.2 µM
NCI-H460 lung
  TGI: 36.4 µM
NCI-H522 lung
  TGI: 29.9 µM
NCI/ADR-RES ovarian
  TGI: > 100 µM
OVCAR-3 ovarian
  TGI: 34.3 µM
OVCAR-4 ovarian
  TGI: 30.8 µM
OVCAR-5 ovarian
  TGI: 42.9 µM
OVCAR-8 ovarian
  TGI: 42.3 µM
PC-3 prostate
  TGI: 43.5 µM
RPMI-8226 leukemia
  TGI: > 100 µM
RXF 393 renal
  TGI: 28 µM
SF-268 CNS
  TGI: 31.1 µM
SF-295 CNS
  TGI: 29.9 µM
SK-MEL-2 melanoma
  TGI: 41.3 µM
SK-MEL-28 melanoma
  TGI: 25 µM
SK-MEL-5 melanoma
  TGI: 17.3 µM
SK-OV-3 ovarian
  TGI: 28.2 µM
SN12C renal
  TGI: 29 µM
SNB-19 CNS
  TGI: 26.3 µM
SNB-75 CNS
  TGI: 34.7 µM
SR leukemia
  TGI: 43.8 µM
SW-620 colon
  TGI: 25.2 µM
T-47D breast
  TGI: 30.9 µM
TK-10 renal
  TGI: 27.4 µM
U251 CNS
  TGI: 30.8 µM
UACC-257 melanoma
  TGI: 29.1 µM
UACC-62 melanoma
  TGI: 29 µM
UO-31 renal
  TGI: 33.8 µM
